# Values of other authors as cited in US20170274026A1, “METHOD OF MAKING TRITERPENOIDS FROM PETRI DISH CULTUREDANTRODIA CINNAMOMEA” (Ultra-Microrigin Biomedical Technology Co., Ltd., priority 2016, published 2017).
# Test system: cancer cells
# Details: Toxicology in Vitro and International Journal of Gerontology
compound,measurement,value
"C=C(CC[C@@H](C(=O)O)[C@H]1C[C@H](O)[C@@]2(C)C3=CC[C@H]4C(C)(C)[C@@H](O)CC[C@]4(C)C3=CC[C@]12C)C(C)C [MMH01, dehydrosulphurenic acid]",anti-tumor effect and repressing the growth of cancer cells,effective in anti-tumor and repressing the growth of cancer cells
